The values that follow come from ChEMBL document CHEMBL1158876, “New acylated sulfoglycolipids and digalactolipids and related known glycolipids from cyanobacteria with a potential to inhibit the reverse transcriptase of HIV-1” (J Nat Prod, 1997).

As a reminder, the inhibition is the relative decrease from the control value, in per cent.

In this assay the target is Gag-Pol polyprotein (Human immunodeficiency virus type 1 group M subtype B (isolate BH10)(HIV-1)) (UniProt P03366). The assay is described as follows: Inhibition of RNA dependent DNA polymerase activity of HIV1 BH10 recombinant reverse transcriptase p66/p51 expressed in Escherichia coli at 10 uM. As to conditions: Human immunodeficiency virus 1.
For `CCCCC/C=C\C/C=C\CCCCCCCC(=O)OC[C@H](CO[C@H]1O[C@H](CS(=O)(=O)O)[C@@H](O)[C@H](OC(=O)CCCCCCCCCCCCCCC)[C@H]1OC(=O)CCCCCCCCCCCCCCC)OC(=O)CCCCCCCCCCCCCCC`, the inhibition was 100%.

On to `CCCCCCCC/C=C\CCCCCCCC(=O)OC[C@H](CO[C@H]1O[C@H](CS(=O)(=O)O)[C@@H](O)[C@H](O)[C@H]1O)OC(=O)CCCCCCCCCCCCCCC`, for which the inhibition stood at 100%.

As to `CCCCC/C=C\C/C=C\CCCCCCCC(=O)OC[C@H](CO[C@H]1O[C@H](CS(=O)(=O)O)[C@@H](O)[C@H](O)[C@H]1O)OC(=O)CCCCCCCCCCCCCCC`, the inhibition was determined as 100%.

In the case of `CCCCC/C=C\C/C=C\CCCCCCCC(=O)OC[C@H](CO[C@@H]1O[C@H](CO[C@H]2O[C@H](CO)[C@H](O)[C@H](OC(=O)CCCCCCCCCCCCCCC)[C@H]2O)[C@H](O)[C@H](O)[C@H]1O)OC(=O)CCCCCCCCCCCCCCC`, the inhibition is 42%.

Take `CCCCC/C=C\C/C=C\CCCCCCCC(=O)OC[C@H](CO[C@@H]1O[C@H](CO)[C@H](O)[C@H](O)C1O)OC(=O)CCCCCCCCCCCCCCC` (single isomer, unassigned): the inhibition is 65%.

As to `CCCCCCCCCCCCCCCC(=O)OC[C@H](CO[C@H]1O[C@H](CS(=O)(=O)O)[C@@H](O)[C@H](O)[C@H]1O)OC(=O)CCCCCCCCCCCCCCC`, the inhibition was found to be 100%.

As to `CCCCCCCC/C=C\CCCCCCCC(=O)OC[C@H](CO[C@@H]1O[C@H](CO)[C@H](O)[C@H](O)C1O)OC(=O)CCCCCCCCCCCCCCC` (single isomer, unassigned), the inhibition was determined as 33%.

Turning to `CCCCCCCCCCCCCCCC(=O)OC[C@H](CO[C@@H]1O[C@H](CO)[C@H](O)[C@H](O)C1O)OC(=O)CCCCCCCCCCCCCCC` (single isomer, unassigned), the inhibition was 8%.
